Test results taken from ChEMBL document CHEMBL2406902, “Potent and Orally Bioavailable GPR142 Agonists as Novel Insulin Secretagogues for the Treatment of Type 2 Diabetes” (ACS Med Chem Lett, 2013).
Values belong to the molecule of their own block, whether it stands above or below them. The source made the active and inactive calls. No cut-off for these calls is given here.

Columns and labels:
[1] = target: T1, Probable G-protein coupled receptor 142 (Homo sapiens, UniProt Q7Z601); experiment: Agonist activity at human GPR142 transfected in HEK293 cells after 1 hr by inositol phosphate accumulation assay; format: functional, cell-based
T1 sequence (Q7Z601 whole entry): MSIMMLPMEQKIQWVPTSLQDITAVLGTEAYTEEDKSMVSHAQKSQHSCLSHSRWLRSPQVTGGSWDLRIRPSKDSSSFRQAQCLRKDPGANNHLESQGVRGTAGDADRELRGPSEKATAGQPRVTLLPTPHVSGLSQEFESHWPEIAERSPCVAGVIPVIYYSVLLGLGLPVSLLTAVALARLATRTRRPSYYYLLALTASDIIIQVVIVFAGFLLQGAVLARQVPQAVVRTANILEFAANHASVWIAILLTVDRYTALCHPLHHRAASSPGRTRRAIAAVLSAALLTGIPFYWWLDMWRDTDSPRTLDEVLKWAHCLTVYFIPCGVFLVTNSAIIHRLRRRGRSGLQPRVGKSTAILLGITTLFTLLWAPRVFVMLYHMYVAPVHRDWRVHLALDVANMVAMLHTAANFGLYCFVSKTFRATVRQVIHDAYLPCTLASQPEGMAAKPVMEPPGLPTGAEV

[2] = Metabolic stability in mouse liver microsomes assessed as compound remaining at 1 uM after 15 mins by LC/MS analysis; format: ADME, Microsome; conditions: read-out: Stability
[3] = Metabolic stability in human liver microsomes assessed as compound remaining at 1 uM after 15 mins by LC/MS analysis; format: ADME, Microsome; conditions: read-out: Stability
[4] = test system: Cynomolgus monkey; experiment: Antidiabetic activity in cynomolgus monkey having impaired glucose tolerance assessed as decrease in blood glucose level at 10 mg/kg administered 60 mins for once a week followed by glucose challenge by OGTT; format: functional, organism-based; set-up: dose 10 mg/kg; conditions: Macaca fascicularis
[5] = test system: Mus musculus; experiment: Antidiabetic activity in C57BL/6J mouse assessed as decrease in blood glucose level at 10 mg/kg administered 30 mins followed by glucose challenge by OGTT; format: functional, organism-based; set-up: dose 10 mg/kg
[6] = test system: Pancreatic islet; experiment: Antidiabetic activity in rat primary pancreatic islets assessed as potentiation of insulin secretion under low glucose condition at 1 to 100 uM after 60 mins; format: functional
[7] = Oral bioavailability in monkey at 1 mg/kg; format: ADME, organism-based, Macaca mulatta; conditions: rhesus monkey, in vivo
[8] = test system: Pancreatic islet; experiment: Antidiabetic activity in rat primary pancreatic islets assessed as potentiation of insulin secretion under high glucose condition at 1 to 100 uM after 60 mins; format: functional
[9] = Volume of distribution at steady state in monkey at 0.5 mg/kg, iv; format: ADME, organism-based, Macaca mulatta; set-up: dose 0.5 mg/kg, route intravenous; conditions: rhesus monkey, in vivo, read-out: Vdss
[10] = test system: Mus musculus; experiment: Antidiabetic activity in sc dosed mouse assessed as improvement of glucose tolerance; format: functional, organism-based
[11] = Clearance in monkey at 0.5 mg/kg, iv; format: ADME, organism-based, Macaca mulatta; set-up: dose 0.5 mg/kg, route intravenous; conditions: rhesus monkey, in vivo
[12] = target: Cytochrome P450 3A4 (Homo sapiens, UniProt P08684); experiment: Inhibition of CYP3A4 (unknown origin); format: ADME
Chain of Cytochrome P450 3A4 (P08684 whole entry): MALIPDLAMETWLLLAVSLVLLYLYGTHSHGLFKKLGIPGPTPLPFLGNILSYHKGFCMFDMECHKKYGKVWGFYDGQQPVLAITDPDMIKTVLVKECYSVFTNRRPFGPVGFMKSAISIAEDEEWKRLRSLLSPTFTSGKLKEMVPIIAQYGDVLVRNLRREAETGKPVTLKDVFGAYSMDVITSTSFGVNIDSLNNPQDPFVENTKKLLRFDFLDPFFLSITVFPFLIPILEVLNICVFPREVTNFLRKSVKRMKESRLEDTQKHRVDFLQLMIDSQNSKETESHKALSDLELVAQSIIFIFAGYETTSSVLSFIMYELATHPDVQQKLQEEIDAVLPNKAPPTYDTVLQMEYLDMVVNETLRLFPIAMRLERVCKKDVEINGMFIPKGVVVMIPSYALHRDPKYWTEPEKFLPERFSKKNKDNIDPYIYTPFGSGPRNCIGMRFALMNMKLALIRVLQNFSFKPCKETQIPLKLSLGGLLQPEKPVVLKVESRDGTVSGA

[13] = test system: Mus musculus; experiment: Antidiabetic activity in po bolus dosed ob/ob mouse assessed as increase in plasma insulin level after 15 to 20 mins; format: functional, organism-based
[14] = test system: Mus musculus; experiment: Antidiabetic activity in po dosed C57BL/6J mouse assessed as decrease in blood glucose level administered 30 mins followed by glucose challenge by OGTT; format: functional
[15] = Metabolic stability in human liver microsomes assessed as compound remaining at 1 uM after 30 mins by LC/MS analysis; format: ADME, Microsome; conditions: read-out: Stability
[16] = Permeability of the compound at pH 5 by PAMPA; format: ADME; conditions: read-out: permeability
[17] = Metabolic stability in rat liver microsomes assessed as compound remaining at 1 uM after 30 mins by LC/MS analysis; format: ADME, Microsome; conditions: read-out: Stability
[18] = Metabolic stability in monkey liver microsomes assessed as compound remaining at 1 uM after 30 mins by LC/MS analysis; format: ADME, Macaca mulatta, Microsome; conditions: rhesus monkey, read-out: Stability
[19] = Permeability of the compound at pH 7.4 by PAMPA; format: ADME; conditions: read-out: permeability
[20] = Half life in monkey at 1 mg/kg, po; format: ADME, organism-based, Macaca mulatta; set-up: dose 1 mg/kg, route oral; conditions: rhesus monkey, in vivo
[21] = test system: Cynomolgus monkey; experiment: Antidiabetic activity in cynomolgus monkey having impaired glucose tolerance assessed as decrease in blood glucose level at 10 mg/kg, po administered 60 mins for once a week followed by glucose challenge by OGTT; format: functional, organism-based; set-up: dose 10 mg/kg; conditions: Macaca fascicularis
[22] = test system: Cynomolgus monkey; experiment: Antidiabetic activity in po dosed cynomolgus monkey having impaired glucose tolerance assessed as decrease in blood glucose level administered 60 mins for once a week followed by glucose challenge by OGTT; format: functional, organism-based; conditions: Macaca fascicularis
[23] = Lipophilicity, log D of the compound at pH 7.4; format: physicochemical; conditions: buffer

SMILES: CCCc1c(C(=O)NCc2cc(C)no2)cnn1-c1ncc(C)c(-c2cccs2)n1
EC50 ([1]; read-out: EC50): > 20000 nM
remaining at 0.25 h, 1 µM [2]: 11%

SMILES: CCCCc1c(C(=O)NC2CCCc3ncn(C)c32)cnn1-c1ncc(C)c(-c2cccs2)n1 (stereo not given)
remaining at 0.25 h, 1 µM [3]: 22%
EC50 ([1]; read-out: EC50): 100 nM
remaining at 0.25 h, 1 µM [2]: 5%

SMILES: CCCCc1c(C(=O)NCc2sc(C)nc2C)cnn1-c1ncc(C)c(-c2cccs2)n1
EC50 ([1]; read-out: EC50): 200 nM
remaining at 0.25 h, 1 µM [2]: 10%

SMILES: N[C@@H](CC(=O)N1CCn2c(nnc2C(F)(F)F)C1)Cc1cc(F)c(F)cc1F
Activity [4]: Active
Activity [5]: Active

SMILES: COCc1c(C(=O)NCc2ccncc2)cnn1-c1ncc(C)c(-c2cccs2)n1
EC50 ([1]; read-out: EC50): 1500 nM
Activity [6]: inactive
bioavailability [7]: 3.9%
Activity [8]: Active
remaining at 0.25 h, 1 µM [2]: 3%
Vd [9]: 1 L/kg
Activity [10]: Active
clearance [11]: 21.7 mL/min/kg

SMILES: CCCCc1c(C(=O)NCc2cnc(C)n2C)cnn1-c1ncc(C)c(-c2cccs2)n1
remaining at 0.25 h, 1 µM [3]: 20%
EC50 ([1]; read-out: EC50): 30 nM
remaining at 0.25 h, 1 µM [2]: 6%

SMILES: CCC(C)c1c(C(=O)NCc2ccncc2)cnn1-c1ncc(C)c(-c2cccs2)n1 (stereo not given)
EC50 ([1]; read-out: EC50): 1200 nM

SMILES: CCCCc1c(C(=O)NCc2ccnn2C)cnn1-c1ncc(C)c(-c2cccs2)n1
EC50 ([1]; read-out: EC50): 90 nM
remaining at 0.25 h, 1 µM [2]: 13%

SMILES: CCCc1c(C(=O)N(CC)Cc2ccncc2)cnn1-c1ncc(C)c(-c2cccs2)n1
EC50 ([1]; read-out: EC50): 3000 nM
remaining at 0.25 h, 1 µM [2]: 0%

SMILES: CCc1c(C(=O)NCc2ccncc2)cnn1-c1ncc(C)c(-c2cccs2)n1
EC50 ([1]; read-out: EC50): 1000 nM

SMILES: CCOCc1c(C(=O)NCc2cncn2C)cnn1-c1ncc(C)c(OCC)n1
remaining at 0.5 h, 1 µM [15]: 77%
Papp [16]: 1.2 ×10⁻⁶ cm/s
remaining at 0.5 h, 1 µM [17]: 77%
remaining at 0.5 h, 1 µM [18]: 66%
Papp [19]: 2.9 ×10⁻⁶ cm/s
EC50 ([1]; read-out: EC50): 96 nM

SMILES: CCCc1c(C(=O)NCc2cn(C)cn2)cnn1-c1ncc(C)c(-c2cccs2)n1
EC50 ([1]; read-out: EC50): 15000 nM
remaining at 0.25 h, 1 µM [2]: 4.7%

SMILES: CCCCc1c(C(=O)NCc2c[nH]c3ccccc23)cnn1-c1ncc(C)c(-c2cccs2)n1
EC50 ([1]; read-out: EC50): > 20000 nM

SMILES: CCCc1c(C(=O)NCc2ccncc2)cnn1-c1ncc(C)c(-c2cccs2)n1
EC50 ([1]; read-out: EC50): 250 nM
remaining at 0.25 h, 1 µM [2]: 1%

SMILES: CCCCc1c(C(=O)NCc2ccc(F)cc2)cnn1-c1ncc(C)c(-c2cccs2)n1
EC50 ([1]; hek293): Not Active
remaining at 0.25 h, 1 µM [2]: 2%

SMILES: CCCCCc1c(C(=O)NCc2ccncc2)cnn1-c1ncc(C)c(-c2cccs2)n1
EC50 ([1]; read-out: EC50): 1000 nM

The next lines start with results.

EC50 ([1]; read-out: EC50): 30 nM
SMILES: CCOCc1c(C(=O)NCc2ccncc2)cnn1-c1ncc(C)c(-c2cccs2)n1

EC50 ([1]; read-out: EC50): 0.2 nM
remaining at 0.25 h, 1 µM [2]: 93%
SMILES: CCCCc1c(C(=O)NCc2cncn2CC(=O)O)cnn1-c1ncc(C)c(-c2cccs2)n1

IC50 [12]: 1000 nM
remaining at 0.5 h, 1 µM [15]: 88%
Papp [16]: 1.5 ×10⁻⁶ cm/s
remaining at 0.5 h, 1 µM [17]: 53%
remaining at 0.5 h, 1 µM [18]: 61%
Papp [19]: 3.5 ×10⁻⁶ cm/s
EC50 ([1]; read-out: EC50): 22 nM
half-life [20]: 72 min
bioavailability [7]: 26%
Vd [9]: 0.77 L/kg
clearance [11]: 16.7 mL/min/kg
SMILES: CCOCc1c(C(=O)NCc2cncn2C)cnn1-c1ncc(C)c(N2CCCCC2)n1
Activity [13]: Dose-dependent effect
Activity [14]: Dose-dependent effect
ED50 ([14]; 0.5 h): 3.3 mg/kg
Activity [21]: Active
Activity [22]: Dose-dependent effect

EC50 ([1]; read-out: EC50): 7 nM
SMILES: CCCCc1c(C(=O)NCc2ccncc2)cnn1-c1ncc(C)c(-c2cccs2)n1

remaining at 0.5 h, 1 µM [15]: 87%
Papp [16]: 0.2 ×10⁻⁶ cm/s
remaining at 0.5 h, 1 µM [18]: 68%
Papp [19]: 1.6 ×10⁻⁶ cm/s
EC50 ([1]; read-out: EC50): 25 nM
SMILES: CCOCc1c(C(=O)NCc2cncn2C)cnn1-c1ncc(C)c(NC2CCC2)n1

remaining at 0.5 h, 1 µM [15]: 69%
Papp [16]: 0.8 ×10⁻⁶ cm/s
remaining at 0.5 h, 1 µM [17]: 66%
remaining at 0.5 h, 1 µM [18]: 46%
logD [23]: 2
Papp [19]: 3.1 ×10⁻⁶ cm/s
EC50 ([1]; read-out: EC50): 14 nM
SMILES: CCOCc1c(C(=O)NCc2cncn2C)cnn1-c1ncc(C)c(N2CCCC2)n1

remaining at 0.25 h, 1 µM [3]: 19%
EC50 ([1]; read-out: EC50): 1 nM
SMILES: CCCCc1c(C(=O)NCc2c(C)ncn2C)cnn1-c1ncc(C)c(-c2cccs2)n1

remaining at 0.5 h, 1 µM [15]: 71%
Papp [16]: 2 ×10⁻⁶ cm/s
remaining at 0.5 h, 1 µM [18]: 34%
logD [23]: 2.2
Papp [19]: 4 ×10⁻⁶ cm/s
EC50 ([1]; read-out: EC50): 1.3 nM
SMILES: CCOCc1c(C(=O)NCc2cncn2C)cnn1-c1ncc(C)c(-c2cccs2)n1

remaining at 0.25 h, 1 µM [3]: 70%
remaining at 0.5 h, 1 µM [15]: 74%
Papp [16]: 3.6 ×10⁻⁶ cm/s
remaining at 0.5 h, 1 µM [17]: 54%
remaining at 0.5 h, 1 µM [18]: 40%
Papp [19]: 8 ×10⁻⁶ cm/s
EC50 ([1]; read-out: EC50): 1 nM
remaining at 0.25 h, 1 µM [2]: 56%
SMILES: CCCCc1c(C(=O)NCc2cncn2C)cnn1-c1ncc(C)c(-c2cccs2)n1

remaining at 0.5 h, 1 µM [15]: 76%
Papp [16]: 0.2 ×10⁻⁶ cm/s
remaining at 0.5 h, 1 µM [18]: 78%
Papp [19]: 1.6 ×10⁻⁶ cm/s
EC50 ([1]; read-out: EC50): 28 nM
SMILES: CCOCc1c(C(=O)NCc2cncn2C)cnn1-c1ncc(C)c(N2CCC2)n1

EC50 ([1]; read-out: EC50): 5 nM
remaining at 0.25 h, 1 µM [2]: 2%
SMILES: CCCc1c(C(=O)NC(C)(C)c2ccncc2)cnn1-c1ncc(C)c(-c2cccs2)n1
